One assay concerns HCT116 WT cells. The experiment in a line: HCT116 WT (parent) cell line proliferation / cell viability (CellTiter-Glo, 6 days). It counts as cell-based. Conditions: Homo sapiens, HCT-116, 144 h, 6 days treatment. Put shortly: (§1)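 Isogenic HCT116 pair (parental and MTAP-knockout) in RPMI 1640 + 10% FBS, treated 6 days with 8–9-point 1:3 dilutions from 1 or 10 μM top, or 22-point 1:2 dilutions from 10 or 50 μM top. Viability by CellTiter-Glo luminescence; IC50 from 4-parameter logistic fit or sigmoidal fit with Hill slope fixed at −1.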
In general terms: Cellular ATP, detected with luciferase, serves as a proxy for viable cell number.

In another assay the test system is HCT116 MTAP null cells. The experiment in a line: HCT116 MTAP null cell line proliferation / cell viability (CellTiter-Glo, 6 days). It counts as cell-based. The settings on record: 144 h; HCT116 MTAP null cells, 6 days treatment, CellTiter-Glo cell viability; read-out: HCT-116 MTAP null IC50. Put shortly:
as §1

In patent US20240124442A1, “TRICYCLIC-AMIDO-BICYCLIC PRMT5 INHIBITORS” (AMGEN INC., priority 2021, published 2024) one finds IC50 data, which are given here for 23 molecules.

Molecules are shown by their SMILES.

As usually defined, the IC50 is the concentration that inhibits the measured activity by half. For `Cc1ncc(-c2ccc3c(c2)OC[C@H]3N(C)C(=O)c2ccc3nc(N)c4cnn(C)c4c3c2)cn1` [Example 636, 4-amino-N,1-dimethyl-N-((3S)-6-(2-methyl-5-pyrimidinyl)-2,3-dihydro-1-benzofuran-3-yl)-1H-pyrazolo[4,3-c]quinoline-8-carboxamide], the figures for the IC50 in the assay with HCT116 WT cells and in the assay with HCT116 MTAP null cells were 1950 nM and 13 nM, respectively.
The corresponding values for `CN(C(=O)c1ccc2nc(N)c3cnn(C)c3c2c1)[C@@H]1COc2cc(-c3cnc(=O)[nH]c3)ccc21` [Example 637, 4-amino-N,1-dimethyl-N-((3S)-6-(2-oxo-1,2-dihydro-5-pyrimidinyl)-2,3-dihydro-1-benzofuran-3-yl)-1H-pyrazolo[4,3-c]quinoline-8-carboxamide] are 32100 nM and 339 nM.
With `CN(C(=O)c1ccc2nc(N)c3cnn(C)c3c2c1)[C@@H]1COc2cc(-c3ccc(F)nc3)ccc21` [Example 638, 4-amino-N-((3S)-6-(6-fluoro-3-pyridinyl)-2,3-dihydro-1-benzofuran-3-yl)-N,1-dimethyl-1H-pyrazolo[4,3-c]quinoline-8-carboxamide], the results for the IC50 in the assay on HCT116 WT cells and in the assay with HCT116 MTAP null cells were 591 nM and 6 nM, respectively.
For the molecule `CCn1cc(-c2ccc3c(c2)OC[C@H]3N(C)C(=O)c2ccc3nc(N)c4cnn(C)c4c3c2)cn1` [Example 639, 4-amino-N-((3S)-6-(1-ethyl-1H-pyrazol-4-yl)-2,3-dihydro-1-benzofuran-3-yl)-N,1-dimethyl-1H-pyrazolo[4,3-c]quinoline-8-carboxamide], the IC50 with HCT116 WT cells amounted to 1400 nM; in the assay on HCT116 MTAP null cells, 15 nM.
Taken in the same sequence, the figures for `CN(C(=O)c1ccc2nc(N)c3cnn(C)c3c2c1)[C@@H]1COc2cc(-c3cnn(C4CC4)c3)ccc21` [Example 640, 4-amino-N-((3S)-6-(1-cyclopropyl-1H-pyrazol-4-yl)-2,3-dihydro-1-benzofuran-3-yl)-N,1-dimethyl-1H-pyrazolo[4,3-c]quinoline-8-carboxamide] were 2050 nM and 16 nM.
The corresponding values for `CN(C(=O)c1ccc2nc(N)c3cnn(C)c3c2c1)[C@@H]1COc2cc(-c3cc(F)cc(F)c3)ccc21` [Example 641, 4-amino-N-((3S)-6-(3,5-difluorophenyl)-2,3-dihydro-1-benzofuran-3-yl)-N,1-dimethyl-1H-pyrazolo[4,3-c]quinoline-8-carboxamide] are 1600 nM and 42 nM.
Taken in the same sequence, the figures for `CN(C(=O)c1ccc2nc(N)c3cnn(C)c3c2c1)[C@@H]1COc2cc(-c3ccc(F)nc3F)ccc21` [Example 642, 4-amino-N-((3S)-6-(2,6-difluoro-3-pyridinyl)-2,3-dihydro-1-benzofuran-3-yl)-N,1-dimethyl-1H-pyrazolo[4,3-c]quinoline-8-carboxamide] were 535 nM and 5 nM.
On to `CN(C(=O)c1ccc2nc(N)c3cnn(C)c3c2c1)[C@@H]1COc2cc(-c3ccnc(F)c3F)ccc21` [Example 643, 4-amino-N-((3S)-6-(2,3-difluoro-4-pyridinyl)-2,3-dihydro-1-benzofuran-3-yl)-N,1-dimethyl-1H-pyrazolo[4,3-c]quinoline-8-carboxamide], for which the IC50 in the assay with HCT116 WT cells is 228 nM; in the assay with HCT116 MTAP null cells, 5 nM.
The corresponding values for `CN(C(=O)c1ccc2nc(N)c3cnn(C)c3c2c1)[C@@H]1COc2cc(-c3cnc4c(c3)CC(=O)N4)ccc21` [Example 644, 4-amino-N,1-dimethyl-N-((3S)-6-(2-oxo-2,3-dihydro-1H-pyrrolo[2,3-b]pyridin-5-yl)-2,3-dihydro-1-benzofuran-3-yl)-1H-pyrazolo[4,3-c]quinoline-8-carboxamide] are 3560 nM and 27 nM.
Taken in the same sequence, the figures for `CN(C(=O)c1ccc2nc(N)c3cnn(C)c3c2c1)[C@@H]1COc2cc(-c3cc(C(F)(F)F)[nH]n3)ccc21` [Example 645, 4-amino-N,1-dimethyl-N-((3S)-6-(5-(trifluoromethyl)-1H-pyrazol-3-yl)-2,3-dihydro-1-benzofuran-3-yl)-1H-pyrazolo[4,3-c]quinoline-8-carboxamide] were 1470 nM and 24 nM.
The corresponding values for `CNC(=O)c1ccc(-c2ccc3c(c2)OC[C@H]3N(C)C(=O)c2ccc3nc(N)c4cnn(C)c4c3c2)cn1` [Example 646, 4-amino-N,1-dimethyl-N-((3S)-6-(6-(methylcarbamoyl)-3-pyridinyl)-2,3-dihydro-1-benzofuran-3-yl)-1H-pyrazolo[4,3-c]quinoline-8-carboxamide] are 329 nM and 3 nM.
`CC(=O)Nc1ccc(-c2ccc3c(c2)OC[C@H]3N(C)C(=O)c2ccc3nc(N)c4cnn(C)c4c3c2)cn1` [Example 647, N-((3S)-6-(6-acetamido-3-pyridinyl)-2,3-dihydro-1-benzofuran-3-yl)-4-amino-N,1-dimethyl-1H-pyrazolo[4,3-c]quinoline-8-carboxamide]: the 50% inhibitory concentration (IC50) is 582 nM with HCT116 WT cells and 8 nM in the assay on HCT116 MTAP null cells.
The corresponding values for `CN(C(=O)c1ccc2nc(N)c3cnn(C)c3c2c1)[C@@H]1COc2cc(-c3cccc(C(F)(F)F)n3)ccc21` [Example 648, 4-amino-N,1-dimethyl-N-((3S)-6-(6-(trifluoromethyl)-2-pyridinyl)-2,3-dihydro-1-benzofuran-3-yl)-1H-pyrazolo[4,3-c]quinoline-8-carboxamide] are 1170 nM and 30 nM.
The corresponding values for `CN(C(=O)c1ccc2nc(N)c3cnn(C)c3c2c1)[C@@H]1COc2cc(-c3cccnc3C(F)(F)F)ccc21` [Example 649, 4-amino-N,1-dimethyl-N-((3S)-6-(2-(trifluoromethyl)-3-pyridinyl)-2,3-dihydro-1-benzofuran-3-yl)-1H-pyrazolo[4,3-c]quinoline-8-carboxamide] are 1040 nM and 18 nM.
The corresponding values for `CN(C(=O)c1ccc2nc(N)c3cnn(C)c3c2c1)[C@@H]1COc2cc(-c3cnccc3C(F)(F)F)ccc21` [Example 650, 4-amino-N,1-dimethyl-N-((3S)-6-(4-(trifluoromethyl)-3-pyridinyl)-2,3-dihydro-1-benzofuran-3-yl)-1H-pyrazolo[4,3-c]quinoline-8-carboxamide] are 447 nM and 8 nM.
Turning to `CN(C(=O)c1ccc2nc(N)c3cnn(C)c3c2c1)[C@@H]1COc2cc(-c3cncc(C(F)(F)F)c3)ccc21` [Example 651, 4-amino-N,1-dimethyl-N-((3S)-6-(5-(trifluoromethyl)-3-pyridinyl)-2,3-dihydro-1-benzofuran-3-yl)-1H-pyrazolo[4,3-c]quinoline-8-carboxamide], the half-maximal inhibitory concentration (IC50) in the assay with HCT116 WT cells was 724 nM; in the assay on HCT116 MTAP null cells, 7 nM.
Regarding `CN(C(=O)c1ccc2nc(N)c3cnn(C)c3c2c1)[C@@H]1COc2cc(-c3ccc(C(F)(F)F)cn3)ccc21` [Example 652, 4-amino-N,1-dimethyl-N-((3S)-6-(5-(trifluoromethyl)-2-pyridinyl)-2,3-dihydro-1-benzofuran-3-yl)-1H-pyrazolo[4,3-c]quinoline-8-carboxamide], the IC50 was 291 nM in the assay on HCT116 WT cells and 6 nM in the assay on HCT116 MTAP null cells.
Taken in the same sequence, the figures for `CN(C(=O)c1ccc2nc(N)c3cnn(C)c3c2c1)[C@@H]1COc2cc(-c3c(C(F)(F)F)cnn3C)ccc21` [Example 653, 4-amino-N,1-dimethyl-N-((3S)-6-(1-methyl-4-(trifluoromethyl)-1H-pyrazol-5-yl)-2,3-dihydro-1-benzofuran-3-yl)-1H-pyrazolo[4,3-c]quinoline-8-carboxamide] were 735 nM and 19 nM.
The corresponding values for `CN(C(=O)c1ccc2nc(N)c3cnn(C)c3c2c1)[C@@H]1COc2cc(-c3cc(C(F)(F)F)nn3C)ccc21` [Example 654, 4-amino-N,1-dimethyl-N-((3S)-6-(1-methyl-3-(trifluoromethyl)-1H-pyrazol-5-yl)-2,3-dihydro-1-benzofuran-3-yl)-1H-pyrazolo[4,3-c]quinoline-8-carboxamide] are 1000 nM and 10 nM.
Taken in the same sequence, the figures for `CN(C(=O)c1ccc2nc(N)c3cnn(C)c3c2c1)[C@@H]1COc2cc(-c3csc(C(F)(F)F)n3)ccc21` [Example 655, 4-amino-N,1-dimethyl-N-((3S)-6-(2-(trifluoromethyl)-1,3-thiazol-4-yl)-2,3-dihydro-1-benzofuran-3-yl)-1H-pyrazolo[4,3-c]quinoline-8-carboxamide] were 946 nM and 28 nM.
On to `CN(C(=O)c1ccc2nc(N)c3cnn(C)c3c2c1)[C@@H]1COc2cc(-c3cnc(C(F)(F)F)s3)ccc21` [Example 656, 4-amino-N,1-dimethyl-N-((3S)-6-(2-(trifluoromethyl)-1,3-thiazol-5-yl)-2,3-dihydro-1-benzofuran-3-yl)-1H-pyrazolo[4,3-c]quinoline-8-carboxamide], for which the IC50 turned out to be 511 nM with HCT116 WT cells and 6 nM in the assay with HCT116 MTAP null cells.
Taken in the same sequence, the figures for `CN(C(=O)c1ccc2nc(N)c3cnn(C)c3c2c1)[C@@H]1COc2cc(-c3ccc4c(c3)OC(F)(F)O4)ccc21` [Example 657, 4-amino-N-((3S)-6-(2,2-difluoro-1,3-benzodioxol-5-yl)-2,3-dihydro-1-benzofuran-3-yl)-N,1-dimethyl-1H-pyrazolo[4,3-c]quinoline-8-carboxamide] were 1710 nM and 37 nM.
The corresponding values for `CN(C(=O)c1ccc2nc(N)c3cnn(C)c3c2c1)[C@@H]1COc2cc(-c3ccc(OC(F)(F)F)cc3)ccc21` [Example 658, 4-amino-N,1-dimethyl-N-((3S)-6-(4-(trifluoromethoxy)phenyl)-2,3-dihydro-1-benzofuran-3-yl)-1H-pyrazolo[4,3-c]quinoline-8-carboxamide] are 630 nM and 42 nM.
